Experimental findings from US20230286973A1, “PROTEIN SECRETION INHIBITORS” (KEZAR LIFE SCIENCES, priority 2020, published 2023) are described below.

One may read the pEC50 as the negative decadic logarithm of the EC50, by convention in mol/L.

Data set [1] in a line: Liver Microsome Stability Assay (human). The note with it: human liver microsomes, with NADPH, 1.0 uM compound.
Method: (§1) Stability of a compound was assessed in the presence of liver microsomes from various sources—mouse, rat, monkey and human liver microsomes. 1.0 uM compound, 0.4% DMSO in 0.1 M Potassium Phosphate with 1.0 mg/mL liver microsomes, were incubated at 37° C. with or without 1 mM NADPH. The samples were quenched at 0, and 30 minutes.
The nature of data set [2]: Liver Microsome Stability Assay (monkey). As to conditions: monkey liver microsomes, with NADPH, 1.0 uM compound.
Method: as §1
Data set [3] concerns TNFα-FL/Gaussia Luciferase. Put plainly: Dox Induced TNFα-FL-Gluc Assay. It is filed as cell-based. The note with it: for pIC50: 24 hr Dox induction, 293FRT/TO cells, read-out: 24 hr Dox Inducible TNFaFLGluc 293FRT/TO: Mean IC50; for 24 hr Dox Inducible TNFaFLGluc 293FRT/TO: TNF/PD1: ratio of TNFaFLGluc IC50 to PD1ssGluc IC50. An outline of the steps:
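Doxycycline-inducible Gaussia luciferase-tagged full-length TNFα (1-233) was expressed in stable Flp-In 293 T-REx cells. Compounds were co-added with doxycycline and incubated at 37 °C, 5% CO2.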

Data set [4] in a line: Liver Microsome Stability Assay (rat). As to conditions: rat liver microsomes, with NADPH, 1.0 uM compound.
Method: as §1
For data set [5], the system named is IL-2-FL/Gaussia Luciferase. Kind of data set: Dox Induced IL2-FL-Gluc Assay. As to conditions: for pIC50: 24 hr Dox induction, 293FRT/TO cells, read-out: 24 hr Dox Inducible IL2FLGluc 293FRT/TO: Mean IC50; for 24 hr Dox Inducible IL2FLGluc 293FRT/TO: IL2/PD1: ratio of IL2FLGluc IC50 to PD1ssGluc IC50. It is filed as cell-based. The essentials:
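Doxycycline induces an IL-2(1-153)–Gaussia luciferase fusion in a stable Flp-In 293 T-REx line. Compound exposure runs alongside induction at 37° C.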

Data set [6] relates to multiple myeloma cell line U266B1. Kind of data set: U266 Cell Viability Assay. It is filed as cell-based, human. As to conditions: Homo sapiens, U266B1 cells, Celltiter-Glo. An outline of the steps:
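Viability is measured as luciferase signal from CellTiter-Glo following a 48-hour incubation with compound at 37° C. under 5% CO2. Where structures lack drawn stereochemistry, values refer to stereoisomer mixtures.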

The nature of data set [7]: Liver Microsome Stability Assay (mouse). The note with it: mouse liver microsomes, with NADPH, 1.0 uM compound.
Method: as §1
The subject of data set [8] is PD1-ss+10aa/Gaussia Luciferase. Kind of data set: Dox-Induced PD1-ss-Gluc Assay. The class given is cell-based. The essentials:
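Flp-In 293 T-REx, stable line; Tet-regulated PD1-ss+10aa fused to Gaussia luciferase; plated day prior; cpd + doxycycline in DMSO/media; 37 °C, 5% CO2.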

Data set [9] deals with HER3-ss+4aa/Gaussia Luciferase. Kind of data set: Dox-Induced Her3-ss-Gluc Assay. The class given is cell-based. An outline of the steps:
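Reporter line: Flp-In 293 T-REx, T-REx-regulated HER3-ss+4aa fused to Gaussia luciferase. Compound co-added with doxycycline after overnight plating, 37° C., 5% CO2.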

The subject of data set [10] is multiple myeloma cell line NCI-H929. Kind of data set: H929 Cell Viability Assay. It is filed as cell-based, human. The note with it: Homo sapiens, NCI-H929 cells, Celltiter-Glo. The essentials:
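Viability is scored by CellTiter-Glo luminescence following a 48-hour treatment at 37° C. Data for structures shown without stereochemistry refer to stereoisomer mixtures.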

Where [11] appears, read: 24 hr Dox induction; 293FRT/TO cells; read-out: 24 hr Dox Inducible PD1ssGluc 293FRT/TO: Mean IC50.
[12] abbreviates: 24 hr Dox induction; 293FRT/TO cells; read-out: 24 hr Dox Inducible Her3(ss + 4)Gluc 293FRT/TO: Mean IC50.

Molecules are shown by their SMILES. pEC50, pIC50: −log10 of the molar value. Like-named read-outs stand apart in the source and are kept apart here.

For `O=C(Nc1nc([C@H]2CCCN2c2ccc(OC3=CCNCC3)cc2)cs1)c1cccn1Cc1ccnc(F)c1` [Compound A89, (R)-1-((2-fluoropyridin-4-yl)methyl)-N-(4-(1-(4-((1,2,3,6-tetrahydropyridin-4-yl)oxy)phenyl)pyrrolidin-2-yl)thiazol-2-yl)-1H-pyrrole-2-carboxamide], in [1], the “Liver Microsome Stability (Multiple Species): Human - % Remaining after 30 min w/NADPH” value was determined as 47%. Also, the “Liver Microsome Stability (Multiple Species): Monkey - % Remaining after 30 min w/NADPH” value in [2] was determined as 2.45%. The pIC50 was 4.74 in [3], 5.57 in [5], 6.25 in [8] (setting [11]) and 5.96 in data set [9] (setting [12]). Further, in data set [3], the “24 hr Dox Inducible TNFaFLGluc 293FRT/TO: TNF/PD1” value is reported as 32.9. In addition, the “Liver Microsome Stability (Multiple Species): Rat - % Remaining after 30 min w/NADPH” value in data set [4] came out at 56.9%. Further, the “24 hr Dox Inducible IL2FLGluc 293FRT/TO: IL2/PD1” value in [5] is on record as 4.9. In addition, the pEC50 was 5.08 in data set [6] (U-266, 48 h) and 5.20 in data set [10] (NCI-H929, 48 h). Moreover, the “Liver Microsome Stability (Multiple Species): Mouse - % Remaining after 30 min w/NADPH” value in data set [7] was 40.4%.
Take `O=C(Nc1nc([C@H]2CCCN2c2ccc(OC3CCN(C(=O)CF)CC3)cc2)cs1)c1cccn1Cc1ccnc(F)c1` [Compound A90, (R)-N-(4-(1-(4-((1-(2-fluoroacetyl)piperidin-4-yl)oxy)phenyl)pyrrolidin-2-yl)thiazol-2-yl)-1-((2-fluoropyridin-4-yl)methyl)-1H-pyrrole-2-carboxamide]: the “Liver Microsome Stability (Multiple Species): Human - % Remaining after 30 min w/NADPH” value in [1] was 22.3%. In addition, in data set [2], the “Liver Microsome Stability (Multiple Species): Monkey - % Remaining after 30 min w/NADPH” value was found to be 1.3%. The pIC50 in data set [3] was 6.29; in data set [5], 7.08; in [8] (read-out: 24 hr Dox Inducible PD1ssGluc 293FRT/TO: Mean IC50; 24 hr Dox induction; 293FRT/TO cells), 7.38; in [9] (read-out: 24 hr Dox Inducible Her3(ss + 4)Gluc 293FRT/TO: Mean IC50; 24 hr Dox induction; 293FRT/TO cells), 7.08. Besides, the “24 hr Dox Inducible TNFaFLGluc 293FRT/TO: TNF/PD1” value in data set [3] is 12.4. For the same molecule, the “Liver Microsome Stability (Multiple Species): Rat - % Remaining after 30 min w/NADPH” value in data set [4] was determined as 39.1%. The “24 hr Dox Inducible IL2FLGluc 293FRT/TO: IL2/PD1” value in [5] is listed as 2. Also, the pEC50 was under 4.60 in [6] (U-266, 48 hr) and 5.97 in data set [10] (48 hr). For the same molecule, the “Liver Microsome Stability (Multiple Species): Mouse - % Remaining after 30 min w/NADPH” value in data set [7] was found to be 21.7%.
Turning to `O=C(Nc1nc([C@H]2CCCN2c2ccc(OC3CCN(C(=O)C(F)F)CC3)cc2)cs1)c1cccn1Cc1ccnc(F)c1` [Compound A91, (R)-N-(4-(1-(4-((1-(2,2-difluoroacetyl)piperidin-4-yl)oxy)phenyl)pyrrolidin-2-yl)thiazol-2-yl)-1-((2-fluoropyridin-4-yl)methyl)-1H-pyrrole-2-carboxamide], in data set [1], the “Liver Microsome Stability (Multiple Species): Human - % Remaining after 30 min w/NADPH” value stood at 43%. In addition, the “Liver Microsome Stability (Multiple Species): Monkey - % Remaining after 30 min w/NADPH” value in data set [2] is on record as 2.34%. Moreover, the pIC50 in [3] was 6.83; in data set [5] it was 7.60; in data set [8] (setting [11]) it was 7.83; in data set [9] (setting [12]), 7.58. Besides, the “24 hr Dox Inducible TNFaFLGluc 293FRT/TO: TNF/PD1” value in data set [3] came out at 10. Also, the “Liver Microsome Stability (Multiple Species): Rat - % Remaining after 30 min w/NADPH” value in data set [4] is 19.7%. In addition, the “24 hr Dox Inducible IL2FLGluc 293FRT/TO: IL2/PD1” value in data set [5] came to 1.7. Further, the negative-log EC50 (pEC50) is under 4.60 in data set [6] (U-266, 48 h) and 6.46 in [10] (NCI-H929, 48 h). Moreover, the “Liver Microsome Stability (Multiple Species): Mouse - % Remaining after 30 min w/NADPH” value in data set [7] is 27.4%.
Turning to `O=C(Nc1nc([C@H]2CCCN2c2ccc(OC3CCN(C(=O)C(F)(F)F)CC3)cc2)cs1)c1cccn1Cc1ccnc(F)c1` [Compound A92, (R)-1-((2-fluoropyridin-4-yl)methyl)-N-(4-(1-(4-((1-(2,2,2-trifluoroacetyl)piperidin-4-yl)oxy)phenyl)pyrrolidin-2-yl)thiazol-2-yl)-1H-pyrrole-2-carboxamide], in data set [1], the “Liver Microsome Stability (Multiple Species): Human - % Remaining after 30 min w/NADPH” value turned out to be 63.5%. Further, in data set [2], the “Liver Microsome Stability (Multiple Species): Monkey - % Remaining after 30 min w/NADPH” value is recorded as 22.5%. For the same molecule, the pIC50 in [3] is 6.59; in data set [5], 7.51; in [8] (setting [11]) it was 7.63; in data set [9] (setting [12]), 7.33. In addition, the “24 hr Dox Inducible TNFaFLGluc 293FRT/TO: TNF/PD1” value in [3] was 10.9. Also, the “Liver Microsome Stability (Multiple Species): Rat - % Remaining after 30 min w/NADPH” value in [4] came out at 43.6%. The “24 hr Dox Inducible IL2FLGluc 293FRT/TO: IL2/PD1” value in [5] amounted to 1.3. The pEC50 is under 4.60 in data set [6] (U-266, 48 h) and 6.33 in [10] (NCI-H929, 48 h). Besides, in [7], the “Liver Microsome Stability (Multiple Species): Mouse - % Remaining after 30 min w/NADPH” value is on record as 52.3%.
On to `CC(=O)Nc1ccc(N2CCC[C@@H]2c2csc(NC(=O)c3cccn3Cc3ccnc(F)c3)n2)cc1F` [Compound A93, (R)-N-(4-(1-(4-acetamido-3-fluorophenyl)pyrrolidin-2-yl)thiazol-2-yl)-1-((2-fluoropyridin-4-yl)methyl)-1H-pyrrole-2-carboxamide], for which the “Liver Microsome Stability (Multiple Species): Human - % Remaining after 30 min w/NADPH” value in [1] came out at 4.24%. For the same molecule, the “Liver Microsome Stability (Multiple Species): Monkey - % Remaining after 30 min w/NADPH” value in data set [2] came to 0.14%. For the same molecule, the pIC50 in data set [3] was 6.73; in data set [5], 7.58; in data set [8] (setting [11]) it was 7.91; in [9] (setting [12]), 7.57. In [3], the “24 hr Dox Inducible TNFaFLGluc 293FRT/TO: TNF/PD1” value was determined as 15.1. Besides, in data set [4], the “Liver Microsome Stability (Multiple Species): Rat - % Remaining after 30 min w/NADPH” value is given as 0.11%. In addition, in [5], the “24 hr Dox Inducible IL2FLGluc 293FRT/TO: IL2/PD1” value turned out to be 2.1. For the same molecule, the pEC50 in [6] (U-266, 48 h) is under 4.60; in data set [10] (NCI-H929, 48 h), 6.41. Further, the “Liver Microsome Stability (Multiple Species): Mouse - % Remaining after 30 min w/NADPH” value in data set [7] is recorded as 1.18%.
Take `[2H]c1c([2H])c([2H])c(N2CCC[C@@H]2c2csc(NC(=O)c3cccn3Cc3ccnc(F)c3)n2)c([2H])c1[2H]` [Compound A94, (R)-1-((2-fluoropyridin-4-yl)methyl)-N-(4-(1-(phenyl-d5)pyrrolidin-2-yl)thiazol-2-yl)-1H-pyrrole-2-carboxamide]: the “Liver Microsome Stability (Multiple Species): Human - % Remaining after 30 min w/NADPH” value in data set [1] worked out at 11.1%. Besides, the “Liver Microsome Stability (Multiple Species): Monkey - % Remaining after 30 min w/NADPH” value in data set [2] is recorded as 0.9%. Further, the pIC50 in [3] was 6.78; in [5], 7.75; in data set [8] (setting [11]), 8.06; in [9] (setting [12]), 7.84. Also, the “24 hr Dox Inducible TNFaFLGluc 293FRT/TO: TNF/PD1” value in data set [3] was 19.2. Also, the “Liver Microsome Stability (Multiple Species): Rat - % Remaining after 30 min w/NADPH” value in [4] was 12.8%. Moreover, the “24 hr Dox Inducible IL2FLGluc 293FRT/TO: IL2/PD1” value in [5] is listed as 2. Also, the pEC50 was under 4.60 in data set [6] (U-266, 48 h) and 6.19 in data set [10] (NCI-H929, 48 h). In data set [7], the “Liver Microsome Stability (Multiple Species): Mouse - % Remaining after 30 min w/NADPH” value is given as 10.9%.
Consider `[2H]c1cc([2H])cc(N2CCC[C@@H]2c2csc(NC(=O)c3cccn3Cc3ccnc(F)c3)n2)c1` [Compound A95, (R)-1-((2-fluoropyridin-4-yl)methyl)-N-(4-(1-(phenyl-3,5-d2)pyrrolidin-2-yl)thiazol-2-yl)-1H-pyrrole-2-carboxamide], for which the “Liver Microsome Stability (Multiple Species): Human - % Remaining after 30 min w/NADPH” value in [1] is listed as 8.25%. The “Liver Microsome Stability (Multiple Species): Monkey - % Remaining after 30 min w/NADPH” value in data set [2] is 0.88%. The pIC50 in [3] is 6.88; in data set [5], 7.73; in data set [8] (setting [11]) it was 8.08; in data set [9] (setting [12]) it was 7.83. For the same molecule, the “24 hr Dox Inducible TNFaFLGluc 293FRT/TO: TNF/PD1” value in data set [3] is reported as 15.9. Besides, the “Liver Microsome Stability (Multiple Species): Rat - % Remaining after 30 min w/NADPH” value in [4] is listed as 13.9%. In data set [5], the “24 hr Dox Inducible IL2FLGluc 293FRT/TO: IL2/PD1” value was 2.2. For the same molecule, the pEC50 is under 4.60 in data set [6] (U-266, 48 h) and 6.23 in [10] (NCI-H929, 48 h). The “Liver Microsome Stability (Multiple Species): Mouse - % Remaining after 30 min w/NADPH” value in data set [7] turned out to be 10.2%.
